Measured values reported in the NIST ThermoML archive (doi:10.1021/acs.jced.7b00378).

Tests used:
[1] = wn = mass fraction of the nth substance listed; conditions: 100 kPa, Liquid, Vibrating tube method
[2] = refractive index (Na D-line) (dimensionless); wn = mass fraction of the nth substance listed; conditions: 100 kPa, Liquid, Standard Abbe refractometry

O=S(=O)([O-])[O-].[Mg+2] [magnesium sulfate] + O
Conditions | mass density, [1] [kg/m3] | refractive index, [2]
288.15 K, w1 = 0.2409 | 1274.47 | 1.384
298.15 K, w1 = 0.2768 | 1302.41 | 1.3895
308.15 K, w1 = 0.2974 | 1325.91 | 1.3902
